Source: paper PMC9176062, “Phase Ib study of combinations of avadomide (CC‐122), CC‐223, CC‐292, and rituximab in patients with relapsed/refractory diffuse large B‐cell lymphoma” (EJHaem, 2022)

How the values were obtained:
R/R DLBCL = details: cited from earlier work
[1] = Steady‐state plasma pharmacokinetics; assay type: in vivo; details: human, oral, CC‐223 + CC‐292 (arm C dose level 2, day 15)
Method: AEs were assessed according to the National Cancer Institute Common Terminology Criteria for AEs, version 4.03, up to 28 days after the last treatment. Blood samples for PK analysis were collected on days 15 to 28, predose, and at 1.5 and 3 h post‐dose on days 1 and 15 of cycle 1 for all dose cohorts. Additional blood samples were collected on day 15 from patients in dose level 2 of arm C to examine CC‐223 and CC‐292 steady‐state PK. Pharmacodynamic biomarkers of each novel agent were explored at baseline and cycle 1, day 1 (pre‐dose, and at 1.5 and 3 h) and cycle 1, day 15 (pre‐dose, and at 1.5 and 3 h), including cereblon modulation substrates in B and T cells in patients treated with CC‐122 and mTOR signaling pathway biomarkers (e.g., p4EBP1 and pAKT) in patients treated with CC‐223. Tumor assessments were performed at screening and at the end of even‐numbered cycles through cycle 6, then every three cycles through cycle 12, and every 6 months thereafter. Responses were assessed by the investigator per International Working Group 2007 criteria.
Safety analyses were performed on all patients who received ≥1 dose of study treatment (safety population). The PK population comprised all patients who took ≥1 dose of study treatment and had ≥1 measured drug concentration. […] The biomarker‐evaluable population comprised all patients who took ≥1 dose of study treatment and had ≥1 pharmacodynamic assessment. Safety and efficacy analyses were based on the safety population except where noted (PK and biomarkers). PK parameters were calculated using actual times relative to the most recent administration. The median duration of response (DOR) and median PFS were calculated per the Kaplan‐Meier method.
FIGURE S3 Summary of pharmacokinetic parameters and mean plasma concentration-time profiles of (A) CC-223 and (B) CC-292. Summary of pharmacokinetic parameters and mean plasma concentration-time profiles of (A) CC-223 and (B) CC-292. […] Data are geometric means (CV%) except for Tmax, for which medians (min, max) are presented.

patients with R/R DLBCL = experiment: Treatment duration, modification, and exposure; assay type: in vivo
Method: CC‐122 hydrochloride, referred to here as CC‐122, as an active pharmaceutical ingredient in capsule (AIC) formulation, was administered orally once daily (QD). An alternate intermittent schedule of CC‐122 QD for five of every seven consecutive days (5/7), which improved tolerability and reduced the frequency and severity of neutropenia in a study of CC‐122 monotherapy in DLBCL, was also explored. CC‐292 was administered orally twice daily (BID) and CC‐223 was administered orally QD. Rituximab was administered on day 8 of cycle 1, day 1 of cycles 2–6, and day 1 of every third cycle thereafter. Patients in arm A received CC‐122 and CC‐223 with or without rituximab (starting at CC‐122 2 mg QD and CC‐223 20 mg QD), patients in arm B received CC‐122 plus CC‐292 with or without rituximab (starting at CC‐122 2 mg QD and CC‐292 500 mg BID), patients in arm C were treated with CC‐223 and CC‐292 (starting at CC‐223 20 mg QD and CC‐292 500 mg BID), and those in arm D received CC‐122 plus rituximab (starting at CC‐122 2 mg QD). In arm D, a CC‐122 3 mg formulated capsule was introduced with the same strength as CC‐122 3 mg AIC. Each dose level was cleared before the next was started. If unacceptable toxicity occurred at the initial dose level, dose reductions for CC‐122 (1.5 mg QD and 1 mg QD) and CC‐223 (15 mg QD) were allowed; no starting dose reductions for CC‐292 were planned. For arm A, the Safety Review Committee (SRC) determined which of the two drugs in the doublet to reduce. For arms B and D, the CC‐122 dose was reduced and for arm C, the CC‐223 dose was reduced. Assignment of patients to study arms was at the discretion of the investigator and based on slot availability per the study design.
Patients who experienced dose‐limiting toxicity (DLT) after receiving ≥1 dose of study treatment or those who received ≥80% of planned doses of CC‐122, CC‐223, CC‐292, and rituximab during cycle 1 without experiencing a DLT were considered DLT‐evaluable. If zero out of ≥3 or ≤1 out of six evaluable patients in a cohort experienced a DLT during cycle 1 in parallel dose cohorts, then dose escalation could occur. DLTs are defined in the Supplementary Materials; individual investigators performed response assessments and determined DLTs. The NTD was defined as the dose level at which ≥2 of six evaluable patients in a cohort experienced a DLT during cycle 1. […] During cycle 1, any adverse event (AE) that led to dose reduction was considered a DLT. Patients could resume CC‐122 at a reduced dose only if they recovered to grade ≤1 within 14 days of dose interruption; two dose reductions were allowed before the patient was withdrawn from the study. Dose reductions were permitted for CC‐122, CC‐223, and CC‐292; no dose reductions were allowed for rituximab, but treatment could be discontinued at the discretion of the investigator. […] For arms A, B, and D, CC‐122 dosing was modified to the intermittent 5/7‐day schedule based on SRC review and escalated until the MTD/RP2D was established. Treatment was given until disease progression, unacceptable toxicity, or patient/physician decision to withdraw consent.
^aTreatment duration defined as date of last derived dose – date of first dose + 1.
^bDefined as the ratio of actual dose received to planned dose over the treatment period.

[2] = patients with a complete response
[3] = Overall (all arms with the drug)

axicabtagene ciloleucel
24‐month PFS (R/R DLBCL; [2]): 72%

lisocabtagene maraleucel
estimated 12‐month PFS rate (R/R DLBCL; [2]): 65%

C=CC(=O)Nc1cccc(Nc2nc(Nc3ccc(OCCOC)cc3)ncc2F)c1 [CC‐292]
clearance ([1]; read-out: apparent plasma clearance (converted)): ~1170 mL/min | Vd ([1]; read-out: mean apparent volume of distribution): 334 L | Tmax ([1]; read-out: median Tmax): 1.5 h | half-life ([1]; read-out: terminal half‐life (converted)): ~3.3 h | ≥1 dose interruption (patients with R/R DLBCL; Arm B (Avadomide + CC-292 ± R)): 14 (51.9) n (%) | ≥1 dose interruption: Adverse event (patients with R/R DLBCL; Arm B (Avadomide + CC-292 ± R)): 5 (18.5) n (%) | ≥1 dose interruption: Other (patients with R/R DLBCL; Arm B (Avadomide + CC-292 ± R)): 8 (29.6) n (%) | ≥1 dose interruption: Per protocol (patients with R/R DLBCL; Arm B (Avadomide + CC-292 ± R)): 1 (3.7) n (%) | ≥1 dose reduction (patients with R/R DLBCL; Arm B (Avadomide + CC-292 ± R)): 12 (44.4) n (%) | ≥1 dose reduction: Adverse event (patients with R/R DLBCL; Arm B (Avadomide + CC-292 ± R)): 5 (18.5) n (%) | ≥1 dose reduction: Other (patients with R/R DLBCL; Arm B (Avadomide + CC-292 ± R)): 8 (29.6) n (%) | ≥1 dose reduction: Per protocol (patients with R/R DLBCL; Arm B (Avadomide + CC-292 ± R)): 1 (3.7) n (%) | ≥1 dose interruption (patients with R/R DLBCL; Arm C (CC-292 + CC-223)): 6 (42.9) n (%) | ≥1 dose interruption: Adverse event (patients with R/R DLBCL; Arm C (CC-292 + CC-223)): 3 (21.4) n (%) | ≥1 dose interruption: Other (patients with R/R DLBCL; Arm C (CC-292 + CC-223)): 1 (7.1) n (%) | ≥1 dose interruption: Per protocol (patients with R/R DLBCL; Arm C (CC-292 + CC-223)): 1 (7.1) n (%) | ≥1 dose reduction (patients with R/R DLBCL; Arm C (CC-292 + CC-223)): 4 (28.6) n (%) | ≥1 dose reduction: Adverse event (patients with R/R DLBCL; Arm C (CC-292 + CC-223)): 3 (21.4) n (%) | ≥1 dose reduction: Other (patients with R/R DLBCL; Arm C (CC-292 + CC-223)): 1 (7.1) n (%) | ≥1 dose reduction: Per protocol (patients with R/R DLBCL; Arm C (CC-292 + CC-223)): 1 (7.1) n (%) | ≥1 dose interruption (patients with R/R DLBCL; [3]): 20 (48.8) n (%) | ≥1 dose interruption: Adverse event (patients with R/R DLBCL; [3]): 8 (19.5) n (%) | ≥1 dose interruption: Other (patients with R/R DLBCL; [3]): 9 (22.0) n (%) | ≥1 dose interruption: Per protocol (patients with R/R DLBCL; [3]): 2 (4.9) n (%) | ≥1 dose reduction (patients with R/R DLBCL; [3]): 16 (39.0) n (%) | ≥1 dose reduction: Adverse event (patients with R/R DLBCL; [3]): 8 (19.5) n (%) | ≥1 dose reduction: Other (patients with R/R DLBCL; [3]): 9 (22.0) n (%) | ≥1 dose reduction: Per protocol (patients with R/R DLBCL; [3]): 2 (4.9) n (%) | patients with dose reductions of the drug (patients with R/R DLBCL; all patients who received the drug): 39.0%

loncastuximab tesirine [reference compound]
CR rates (R/R DLBCL; monotherapy, third‐line setting): 24%
